# What was measured:
# Assay in all cases: radiometric filter-binding kinase assay, Kinase HotSpot
# Settings in all cases: compound 0.5 µM; ATP 10 µM
# ACVR1 (human) = ACVR1 (human) (UniProt Q04771)
# AKT2 (human) = AKT2 (human) (UniProt P31751)
# BLK (human) = BLK (human) (UniProt P51451)
# CAMK4 (human) = CAMK4 (human) (UniProt Q16566)
# CDK5 CDK5R1 p25 (human) = CDK5 CDK5R1 p25 (human) (UniProt Q00535+Q15078)
# CLK4 (human) = CLK4 (human) (UniProt Q9HAZ1)
# CSF1R (human) = CSF1R (human) (UniProt P07333)
# CSNK1D (human) = CSNK1D (human) (UniProt P48730)
# Chain of CSNK1D (human) (P48730 whole entry, looked up): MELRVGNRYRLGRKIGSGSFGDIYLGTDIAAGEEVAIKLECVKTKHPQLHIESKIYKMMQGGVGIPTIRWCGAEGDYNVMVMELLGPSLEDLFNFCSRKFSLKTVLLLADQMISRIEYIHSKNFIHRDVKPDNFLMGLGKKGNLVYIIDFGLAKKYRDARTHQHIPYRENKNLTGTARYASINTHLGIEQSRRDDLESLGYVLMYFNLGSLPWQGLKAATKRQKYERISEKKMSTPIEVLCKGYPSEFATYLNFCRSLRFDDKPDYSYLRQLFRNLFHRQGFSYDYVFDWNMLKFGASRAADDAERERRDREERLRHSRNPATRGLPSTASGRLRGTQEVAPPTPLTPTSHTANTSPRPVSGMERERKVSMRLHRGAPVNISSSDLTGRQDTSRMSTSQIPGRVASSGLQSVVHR
# EPHB3 (human) = EPHB3 (human) (UniProt P54753)
# EPHB4 (human) = EPHB4 (human) (UniProt P54760)
# Chain of EPHB4 (human) (P54760 whole entry, looked up): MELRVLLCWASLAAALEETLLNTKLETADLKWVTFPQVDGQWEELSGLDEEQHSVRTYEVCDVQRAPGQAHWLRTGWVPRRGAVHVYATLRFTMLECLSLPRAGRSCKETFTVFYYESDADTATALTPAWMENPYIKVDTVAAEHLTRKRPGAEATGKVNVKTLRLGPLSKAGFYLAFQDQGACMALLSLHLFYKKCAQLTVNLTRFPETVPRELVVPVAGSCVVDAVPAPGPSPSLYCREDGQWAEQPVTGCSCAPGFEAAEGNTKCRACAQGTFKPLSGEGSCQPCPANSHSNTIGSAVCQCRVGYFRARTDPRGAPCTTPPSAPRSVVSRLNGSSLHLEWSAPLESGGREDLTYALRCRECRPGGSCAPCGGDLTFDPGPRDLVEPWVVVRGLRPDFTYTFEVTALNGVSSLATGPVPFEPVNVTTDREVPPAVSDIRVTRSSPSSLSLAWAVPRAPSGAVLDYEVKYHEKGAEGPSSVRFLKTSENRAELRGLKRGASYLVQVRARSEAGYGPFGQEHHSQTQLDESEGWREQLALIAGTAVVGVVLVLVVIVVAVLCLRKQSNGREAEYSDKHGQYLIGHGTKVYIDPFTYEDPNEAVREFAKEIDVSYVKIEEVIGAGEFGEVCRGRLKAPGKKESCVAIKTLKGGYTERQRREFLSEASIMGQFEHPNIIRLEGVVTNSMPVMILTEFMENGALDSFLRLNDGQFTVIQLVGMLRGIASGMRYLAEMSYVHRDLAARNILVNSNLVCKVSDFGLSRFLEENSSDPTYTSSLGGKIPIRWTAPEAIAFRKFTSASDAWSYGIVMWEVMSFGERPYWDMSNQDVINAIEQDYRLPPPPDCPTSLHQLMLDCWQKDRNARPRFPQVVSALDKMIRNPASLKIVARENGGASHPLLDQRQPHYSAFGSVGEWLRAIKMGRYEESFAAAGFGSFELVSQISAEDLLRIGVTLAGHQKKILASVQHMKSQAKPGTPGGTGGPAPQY
# FES (human) = FES (human) (UniProt P07332)
# FGFR1 (human) = FGFR1 (human) (UniProt P11362)
# FGFR2 (human) = FGFR2 (human) (UniProt P21802)
# IRAK4 (human) = IRAK4 (human) (UniProt Q9NWZ3)
# KIT (human) = KIT (human) (UniProt P10721)
# LTK (human) = LTK (human) (UniProt P29376)
# MAP3K7 TAB1 (human) = MAP3K7 TAB1 (human) (UniProt O43318+Q15750)
# MAPK1 (human) = MAPK1 (human) (UniProt P28482)
# Chain of MAPK1 (human) (P28482 whole entry, looked up): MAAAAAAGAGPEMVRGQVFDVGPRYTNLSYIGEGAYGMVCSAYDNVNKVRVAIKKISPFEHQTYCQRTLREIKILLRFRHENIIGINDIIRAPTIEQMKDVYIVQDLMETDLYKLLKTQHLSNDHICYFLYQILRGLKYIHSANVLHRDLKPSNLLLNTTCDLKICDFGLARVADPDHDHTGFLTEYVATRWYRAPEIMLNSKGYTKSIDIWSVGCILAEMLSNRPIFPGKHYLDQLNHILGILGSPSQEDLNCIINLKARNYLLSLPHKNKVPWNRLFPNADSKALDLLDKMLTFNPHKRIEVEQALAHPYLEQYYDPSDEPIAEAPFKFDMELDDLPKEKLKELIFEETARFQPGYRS
# MAPK10 (human) = MAPK10 (human) (UniProt P53779)
# MAPK3 (human) = MAPK3 (human) (UniProt P27361)
# MARK3 (human) = MARK3 (human) (UniProt P27448)
# MARK4 (human) = MARK4 (human) (UniProt Q96L34)
# MST4 (human) = MST4 (human) (UniProt Q9P289)
# PAK1 (human) = PAK1 (human) (UniProt Q13153)
# PHKG2 (human) = PHKG2 (human) (UniProt P15735)
# PLK2 (human) = PLK2 (human) (UniProt Q9NYY3)
# Chain of PLK2 (human) (Q9NYY3 whole entry, looked up): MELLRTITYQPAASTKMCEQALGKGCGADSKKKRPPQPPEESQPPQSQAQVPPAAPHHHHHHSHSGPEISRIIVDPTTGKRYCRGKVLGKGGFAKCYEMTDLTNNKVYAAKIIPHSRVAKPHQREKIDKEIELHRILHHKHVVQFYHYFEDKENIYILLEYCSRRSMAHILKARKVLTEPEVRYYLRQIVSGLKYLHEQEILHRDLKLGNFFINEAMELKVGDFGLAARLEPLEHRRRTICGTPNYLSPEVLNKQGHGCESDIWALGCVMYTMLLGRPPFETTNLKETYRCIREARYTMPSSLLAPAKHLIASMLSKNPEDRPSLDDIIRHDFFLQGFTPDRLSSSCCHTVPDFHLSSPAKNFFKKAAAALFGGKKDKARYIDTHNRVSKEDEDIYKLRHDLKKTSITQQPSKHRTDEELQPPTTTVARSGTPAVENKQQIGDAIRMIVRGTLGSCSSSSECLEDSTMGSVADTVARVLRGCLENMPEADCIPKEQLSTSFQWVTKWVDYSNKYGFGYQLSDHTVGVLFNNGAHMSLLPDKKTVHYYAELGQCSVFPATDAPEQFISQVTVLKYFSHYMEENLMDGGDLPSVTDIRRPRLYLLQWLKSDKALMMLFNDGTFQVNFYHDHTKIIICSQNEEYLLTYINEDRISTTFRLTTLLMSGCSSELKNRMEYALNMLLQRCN
# PRKCZ (human) = PRKCZ (human) (UniProt Q05513)
# PRKD2 (human) = PRKD2 (human) (UniProt Q9BZL6)
# PRKD3 (human) = PRKD3 (human) (UniProt O94806)
# PRKX (human) = PRKX (human) (UniProt P51817)
# RAF1 (human) = RAF1 (human) (UniProt P04049)
# ROCK2 (human) = ROCK2 (human) (UniProt O75116)
# RPS6KA1 KD1 KD2 (human) = RPS6KA1 KD1 KD2 (human) (UniProt Q15418)
# RPS6KA3 KD1 KD2 (human) = RPS6KA3 KD1 KD2 (human) (UniProt P51812)
# RPS6KB2 (human) = RPS6KB2 (human) (UniProt Q9UBS0)
# SIK2 (human) = SIK2 (human) (UniProt Q9H0K1)
# SLK (human) = SLK (human) (UniProt Q9H2G2)
# SRC (human) = SRC (human) (UniProt P12931)
# Chain of SRC (human) (P12931 whole entry, looked up): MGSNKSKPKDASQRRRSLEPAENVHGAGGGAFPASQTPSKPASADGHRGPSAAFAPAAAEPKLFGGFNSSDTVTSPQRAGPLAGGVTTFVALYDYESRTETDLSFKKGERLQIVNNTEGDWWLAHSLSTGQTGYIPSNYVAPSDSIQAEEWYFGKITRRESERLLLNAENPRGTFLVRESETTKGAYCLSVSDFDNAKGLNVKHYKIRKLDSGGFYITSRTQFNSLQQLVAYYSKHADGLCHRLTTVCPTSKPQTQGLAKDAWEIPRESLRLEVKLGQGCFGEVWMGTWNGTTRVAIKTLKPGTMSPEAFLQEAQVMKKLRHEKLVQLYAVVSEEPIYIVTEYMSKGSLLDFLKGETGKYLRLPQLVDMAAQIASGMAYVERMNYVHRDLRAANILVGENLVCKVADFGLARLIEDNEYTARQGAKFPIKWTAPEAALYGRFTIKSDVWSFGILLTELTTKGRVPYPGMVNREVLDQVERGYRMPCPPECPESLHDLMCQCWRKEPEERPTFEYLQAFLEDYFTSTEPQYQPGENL
# STK24 (human) = STK24 (human) (UniProt Q9Y6E0)
# TAOK2 (human) = TAOK2 (human) (UniProt Q9UL54)
# TGFBR2 (human) = TGFBR2 (human) (UniProt P37173)
# Chain of TGFBR2 (human) (P37173 whole entry, looked up): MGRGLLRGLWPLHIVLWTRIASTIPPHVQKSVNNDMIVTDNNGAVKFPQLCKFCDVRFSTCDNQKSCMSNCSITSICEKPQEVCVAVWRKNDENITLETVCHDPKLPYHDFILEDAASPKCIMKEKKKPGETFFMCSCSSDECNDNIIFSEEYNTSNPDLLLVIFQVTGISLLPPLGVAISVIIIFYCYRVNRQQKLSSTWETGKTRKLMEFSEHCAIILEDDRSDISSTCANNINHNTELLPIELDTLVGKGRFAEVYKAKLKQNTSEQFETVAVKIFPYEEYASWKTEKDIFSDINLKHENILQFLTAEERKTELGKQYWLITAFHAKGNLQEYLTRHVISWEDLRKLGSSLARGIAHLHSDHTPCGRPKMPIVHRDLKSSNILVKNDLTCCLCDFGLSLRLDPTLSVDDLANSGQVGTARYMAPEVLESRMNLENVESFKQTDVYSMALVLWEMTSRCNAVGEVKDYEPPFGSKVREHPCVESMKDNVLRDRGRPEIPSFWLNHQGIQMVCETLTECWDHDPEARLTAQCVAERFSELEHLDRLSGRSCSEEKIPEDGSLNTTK
# ULK2 (human) = ULK2 (human) (UniProt Q8IYT8)
# Chain of CLK4 (human) (Q9HAZ1 whole entry, looked up): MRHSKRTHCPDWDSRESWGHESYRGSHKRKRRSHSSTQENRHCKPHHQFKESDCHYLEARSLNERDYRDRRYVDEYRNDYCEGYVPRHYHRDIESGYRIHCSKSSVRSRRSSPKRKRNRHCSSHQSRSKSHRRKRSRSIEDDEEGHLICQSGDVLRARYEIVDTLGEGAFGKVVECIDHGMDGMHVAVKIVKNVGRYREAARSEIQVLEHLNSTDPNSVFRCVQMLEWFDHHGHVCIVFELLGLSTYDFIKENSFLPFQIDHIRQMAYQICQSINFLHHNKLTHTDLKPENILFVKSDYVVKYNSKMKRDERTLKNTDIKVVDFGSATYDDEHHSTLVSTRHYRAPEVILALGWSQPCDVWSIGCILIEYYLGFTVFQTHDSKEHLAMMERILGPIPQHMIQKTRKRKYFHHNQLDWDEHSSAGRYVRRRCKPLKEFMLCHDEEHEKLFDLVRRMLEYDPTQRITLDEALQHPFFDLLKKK
# Chain of BLK (human) (P51451 whole entry, looked up): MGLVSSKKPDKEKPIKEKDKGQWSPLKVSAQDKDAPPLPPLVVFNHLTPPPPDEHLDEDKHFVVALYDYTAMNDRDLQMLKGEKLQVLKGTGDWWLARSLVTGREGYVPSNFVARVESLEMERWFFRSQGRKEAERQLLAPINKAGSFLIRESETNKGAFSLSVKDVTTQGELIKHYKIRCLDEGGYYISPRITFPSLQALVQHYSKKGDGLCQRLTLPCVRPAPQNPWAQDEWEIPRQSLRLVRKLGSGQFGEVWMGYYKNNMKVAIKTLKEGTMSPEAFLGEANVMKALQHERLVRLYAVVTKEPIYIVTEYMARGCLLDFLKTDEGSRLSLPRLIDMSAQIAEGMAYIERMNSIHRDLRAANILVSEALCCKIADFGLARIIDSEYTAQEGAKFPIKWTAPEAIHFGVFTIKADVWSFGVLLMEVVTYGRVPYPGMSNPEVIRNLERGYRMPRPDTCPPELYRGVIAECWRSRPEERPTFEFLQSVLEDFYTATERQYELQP
# Chain of AKT2 (human) (P31751 whole entry, looked up): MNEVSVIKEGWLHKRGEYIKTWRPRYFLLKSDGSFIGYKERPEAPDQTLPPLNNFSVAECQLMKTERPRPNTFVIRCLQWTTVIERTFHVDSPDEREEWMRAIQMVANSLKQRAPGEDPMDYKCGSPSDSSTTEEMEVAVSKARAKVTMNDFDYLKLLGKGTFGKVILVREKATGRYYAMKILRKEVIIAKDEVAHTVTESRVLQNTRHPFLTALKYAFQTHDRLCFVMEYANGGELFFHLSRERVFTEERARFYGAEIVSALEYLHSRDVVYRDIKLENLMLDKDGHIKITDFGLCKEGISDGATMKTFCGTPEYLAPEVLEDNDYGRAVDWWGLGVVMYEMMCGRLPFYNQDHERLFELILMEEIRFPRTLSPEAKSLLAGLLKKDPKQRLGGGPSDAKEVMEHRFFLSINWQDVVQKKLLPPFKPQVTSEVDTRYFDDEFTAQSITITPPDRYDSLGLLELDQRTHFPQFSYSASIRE
structure (smiles),measurement,setting,value
CCCNC(=O)Nc1ccc(Oc2ncnc3cc(OC)c(OC)cc23)cc1Cl,residual activity,ACVR1 (human),101%
same,residual activity,AKT2 (human),89.7%
same,residual activity,BLK (human),96.8%
same,residual activity,CAMK4 (human),99.1%
same,residual activity,CDK5 CDK5R1 p25 (human),95.7%
same,residual activity,CLK4 (human),94.2%
same,residual activity,CSF1R (human),51.1%
same,residual activity,CSNK1D (human),98.9%
same,residual activity,EPHB3 (human),93.7%
same,residual activity,EPHB4 (human),89.4%
same,residual activity,FES (human),96%
same,residual activity,FGFR1 (human),75.4%
same,residual activity,FGFR2 (human),91.3%
same,residual activity,IRAK4 (human),92%
same,residual activity,KIT (human),39.2%
same,residual activity,LTK (human),95.7%
same,residual activity,MAP3K7 TAB1 (human),103%
same,residual activity,MAPK1 (human),101%
same,residual activity,MAPK10 (human),100%
same,residual activity,MAPK3 (human),105%
same,residual activity,MARK3 (human),95.3%
same,residual activity,MARK4 (human),110%
same,residual activity,MST4 (human),86.9%
same,residual activity,PAK1 (human),93.8%
same,residual activity,PHKG2 (human),84.1%
same,residual activity,PLK2 (human),104%
same,residual activity,PRKCZ (human),102%
same,residual activity,PRKD2 (human),94.3%
same,residual activity,PRKD3 (human),93.4%
same,residual activity,PRKX (human),100%
same,residual activity,RAF1 (human),85.4%
same,residual activity,ROCK2 (human),97.7%
same,residual activity,RPS6KA1 KD1 KD2 (human),92.3%
same,residual activity,RPS6KA3 KD1 KD2 (human),94.9%
same,residual activity,RPS6KB2 (human),104%
same,residual activity,SIK2 (human),101%
same,residual activity,SLK (human),80%
same,residual activity,SRC (human),98.6%
same,residual activity,STK24 (human),91.7%
same,residual activity,TAOK2 (human),94.5%
same,residual activity,TGFBR2 (human),109%
same,residual activity,ULK2 (human),89.2%
CC(C)n1cnc2c(Nc3cccc(Cl)c3)nc(NCCO)nc21,residual activity,ACVR1 (human),80.3%
same,residual activity,AKT2 (human),92.4%
same,residual activity,BLK (human),91.2%
same,residual activity,CAMK4 (human),101%
same,residual activity,CDK5 CDK5R1 p25 (human),26.2%
same,residual activity,CLK4 (human),36.1%
same,residual activity,CSF1R (human),94.8%
same,residual activity,CSNK1D (human),48.5%
same,residual activity,EPHB3 (human),119%
same,residual activity,EPHB4 (human),82%
same,residual activity,FES (human),66.2%
same,residual activity,FGFR1 (human),84.2%
same,residual activity,FGFR2 (human),94.5%
same,residual activity,IRAK4 (human),95.2%
same,residual activity,KIT (human),76.3%
same,residual activity,LTK (human),85.3%
same,residual activity,MAP3K7 TAB1 (human),92.7%
same,residual activity,MAPK1 (human),107%
same,residual activity,MAPK10 (human),101%
same,residual activity,MAPK3 (human),111%
same,residual activity,MARK3 (human),92.3%
same,residual activity,MARK4 (human),88.1%
same,residual activity,MST4 (human),87.9%
same,residual activity,PAK1 (human),97.1%
same,residual activity,PHKG2 (human),93.2%
same,residual activity,PLK2 (human),95.9%
same,residual activity,PRKCZ (human),97.8%
same,residual activity,PRKD2 (human),88.1%
same,residual activity,PRKD3 (human),88.4%
same,residual activity,PRKX (human),96.4%
same,residual activity,RAF1 (human),105%
same,residual activity,ROCK2 (human),97.5%
same,residual activity,RPS6KA1 KD1 KD2 (human),69.1%
same,residual activity,RPS6KA3 KD1 KD2 (human),60.1%
same,residual activity,RPS6KB2 (human),97%
same,residual activity,SIK2 (human),107%
same,residual activity,SLK (human),84.8%
same,residual activity,SRC (human),68.9%
same,residual activity,STK24 (human),87.7%
same,residual activity,TAOK2 (human),97.2%
same,residual activity,TGFBR2 (human),70.2%
same,residual activity,ULK2 (human),89%
